Target: T1, Tyrosine-protein phosphatase non-receptor type 1 (Homo sapiens, UniProt P18031)
T1 sequence (P18031 whole entry): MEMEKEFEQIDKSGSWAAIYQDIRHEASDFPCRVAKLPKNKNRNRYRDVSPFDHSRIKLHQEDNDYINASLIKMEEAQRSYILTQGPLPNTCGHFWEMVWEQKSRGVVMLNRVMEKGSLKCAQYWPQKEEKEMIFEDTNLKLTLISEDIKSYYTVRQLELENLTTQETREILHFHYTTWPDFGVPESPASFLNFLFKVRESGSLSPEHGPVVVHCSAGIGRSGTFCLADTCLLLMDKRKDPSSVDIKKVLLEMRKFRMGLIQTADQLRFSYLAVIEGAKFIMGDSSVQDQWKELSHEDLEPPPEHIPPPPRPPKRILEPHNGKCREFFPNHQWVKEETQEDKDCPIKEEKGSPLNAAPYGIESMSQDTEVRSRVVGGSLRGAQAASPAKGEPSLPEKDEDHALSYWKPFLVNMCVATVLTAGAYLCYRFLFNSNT
Assay: Binding affinity to PTP1B

Compound `O=C(O)C(=O)Nc1sc2c(c1C(=O)O)CCC1(C2)OCCO1` has a Ki of 2200 nM.

From ChEMBL document CHEMBL1141964, “Molecular docking and 3D-QSAR on 2-(oxalylamino) benzoic acid and its analogues as protein tyrosine phosphatase 1B inhibitors” (Bioorg Med Chem Lett, 2005)
